Here are results for 27 compounds from ChEMBL document CHEMBL1127279, “1,3-Oxazino[4,5-b]indole-2,4-(1H,9H)-diones and 5,6-dimethylpyrrolo-[2,3-d]-1,3-oxazin-2,4-(1H,7H)-diones as serine protease inhibitors” (Bioorg Med Chem Lett, 1994).

The term IC50 denotes the concentration that inhibits the measured activity by half.

The target in assay [1] is T1, Neutrophil elastase (Homo sapiens, UniProt P08246).
T1 sequence (P08246 whole entry): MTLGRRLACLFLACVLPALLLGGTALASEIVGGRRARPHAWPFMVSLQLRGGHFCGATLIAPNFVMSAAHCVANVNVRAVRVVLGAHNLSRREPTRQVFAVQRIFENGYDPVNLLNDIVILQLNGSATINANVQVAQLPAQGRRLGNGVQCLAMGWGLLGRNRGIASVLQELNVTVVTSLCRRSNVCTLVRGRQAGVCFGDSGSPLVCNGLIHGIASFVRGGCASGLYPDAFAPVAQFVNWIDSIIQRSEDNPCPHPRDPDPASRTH
As to the kind of experiment: In vitro inhibition of human leukocyte elastase.

The next assay deals with Pancreatic elastase (Sus scrofa, UniProt P08419+P00772). Briefly: Inhibitory activity against porcine pancreatic elastase using Suc-Ala-Ala-Ala-pNA (416 uM) as substrate. The format is protein assay.
In assay [2] the target is T2, Chymotrypsinogen A (Bos taurus, UniProt P00766). Briefly: Inhibitory activity against chymotrypsin using Suc-Ala-Ala-Pro-Phe-pNA (416 uM) as substrate;No Inhibition. Details: species or system Sus scrofa; call rule not given here.
The target of assay [3] is T2, Chymotrypsinogen A. As to the kind of experiment: Inhibitory activity against chymotrypsin using Suc-Ala-Ala-Pro-Phe-pNA (416 uM) as substrate; No Inhibition. Details: species or system Sus scrofa.
Assay [4] addresses T1, Neutrophil elastase. Briefly: Inhibitory activity against human leukocyte elastase using MeO-Suc-Ala-Ala-Pro-Val-pNA (416 uM) as substrate;No Inhibition.
In assay [5] the target is T1, Neutrophil elastase. Briefly: Inhibitory activity against human leukocyte elastase using MeO-Suc-Ala-Ala-Pro-Val-pNA (416 uM) as substrate.
For assay [6], the target named is T2, Chymotrypsinogen A. Briefly: Inhibitory activity against chymotrypsin using Suc-Ala-Ala-Pro-Phe-pNA (416 uM) as substrate. Details: species or system Sus scrofa.

On to `CCCn1c2ccc(OC)cc2c2c(=O)oc(=O)[nH]c21`, for which the IC50 against Neutrophil elastase [1] was > 1000 µM.

Take `CC(=O)Oc1ccc2c(c1)c1c(=O)oc(=O)[nH]c1n2CCCc1ccccc1`: the 50% inhibitory concentration (IC50) against Neutrophil elastase [1] is 305 µM; at Pancreatic elastase, > 1000 µM.

Compound `CC(=O)Oc1ccc2c(c1)c1c(=O)oc(=O)[nH]c1n2Cc1ccccc1` showed an IC50 against Neutrophil elastase [1] of 75 µM.

Take `CC(=O)Oc1ccc2c(c1)c1c(=O)oc(=O)[nH]c1n2C1CCCCC1`: at Neutrophil elastase [1], the IC50 came out at 454 µM.

On to `CCCCn1c2ccc(OC(C)=O)cc2c2c(=O)oc(=O)[nH]c21`, for which the IC50 was 810 µM against Neutrophil elastase [1] and > 1000 µM on Pancreatic elastase.

Turning to `COC(Cn1c2ccc(OC(C)=O)cc2c2c(=O)oc(=O)[nH]c21)OC`, the IC50 at Neutrophil elastase [1] stood at 742 µM.

Turning to `COCCn1c2ccc(OC(C)=O)cc2c2c(=O)oc(=O)[nH]c21`, the IC50 entry against Chymotrypsinogen A [2] was “Not Active”; at Neutrophil elastase [1], > 1000 µM.

Take `COC(Cn1c(C)c(C)c2c(=O)oc(=O)[nH]c21)OC`: the concentration for half-maximal inhibition (IC50) result against Chymotrypsinogen A [3] and on Neutrophil elastase [4] was “Not Active” in each case.

Regarding `Cc1c(C)n(Cc2ccccn2)c2[nH]c(=O)oc(=O)c12`, the IC50 result against Neutrophil elastase [4] is recorded as “Not Active”.

In the case of `COc1ccc2c(c1)c1c(=O)oc(=O)[nH]c1n2CCc1ccccc1`, the half-inhibitory concentration (IC50) at Neutrophil elastase [5] was > 1000 µM.

Consider `CCCCn1c(C)c(C)c2c(=O)oc(=O)[nH]c21`, for which the IC50 against Neutrophil elastase [1] is > 1000 µM.

For `CCCn1c(C)c(C)c2c(=O)oc(=O)[nH]c21`, the IC50 result against Chymotrypsinogen A [3] and against Neutrophil elastase [4] was “Not Active” in each case.

For the compound `COc1ccc2c(c1)c1c(=O)oc(=O)[nH]c1n2Cc1ccccc1`, at Neutrophil elastase [1], the IC50 was > 1000 µM.

For `CC(=O)Oc1ccc2c(c1)c1c(=O)oc(=O)[nH]c1n2CCc1ccccc1`, the half-maximal inhibitory concentration (IC50) was found to be 92 µM at Neutrophil elastase [1] and 833 µM on Pancreatic elastase.

With `Cc1c(C)n(CCCc2ccccc2)c2[nH]c(=O)oc(=O)c12`, the IC50 on Neutrophil elastase [4] (read-out: IC50) amounted to 895 µM.

Consider `COc1ccc2c(c1)c1c(=O)oc(=O)[nH]c1n2CC(OC)OC`, for which the half-maximal inhibitory concentration (IC50) against Neutrophil elastase [1] was > 1000 µM.

As for `COCCn1c2ccc(OC)cc2c2c(=O)oc(=O)[nH]c21`, the IC50 entry against Chymotrypsinogen A [3] is “Not Active”; on Neutrophil elastase [1] it was > 1000 µM.

Take `Cc1c(C)n(Cc2ccccc2)c2[nH]c(=O)oc(=O)c12`: the IC50 entry against Neutrophil elastase [4] was “Not Active”.

As for `CC(=O)Oc1ccc2c(c1)c1c(=O)oc(=O)[nH]c1n2Cc1ccccn1`, the IC50 at Neutrophil elastase [1] was 292 µM.

As for `Cc1c(C)n(CCc2ccccc2)c2[nH]c(=O)oc(=O)c12`, the IC50 result at Neutrophil elastase [4] is given as “Not Active”.

As for `COc1ccc2c(c1)c1c(=O)oc(=O)[nH]c1n2Cc1ccccn1`, the IC50 at Chymotrypsinogen A [6] was 512 µM; at Neutrophil elastase [1], > 1000 µM.

For `COc1ccc2c(c1)c1c(=O)oc(=O)[nH]c1n2CCCc1ccccc1`, the midpoint of inhibition on Neutrophil elastase [5], the IC50, lay at 989 µM.

Regarding `Cc1c(C)n(C2CCCCC2)c2[nH]c(=O)oc(=O)c12`, the 50% inhibitory concentration (IC50) against Neutrophil elastase [1] was > 1000 µM.

In the case of `CCCn1c2ccc(OC(C)=O)cc2c2c(=O)oc(=O)[nH]c21`, inhibition against Neutrophil elastase [1] was half-maximal at 665 µM (IC50).

Turning to `COc1ccc2c(c1)c1c(=O)oc(=O)[nH]c1n2C1CCCCC1`, the IC50 on Neutrophil elastase [1] was > 1000 µM.

For the compound `CCCCn1c2ccc(OC)cc2c2c(=O)oc(=O)[nH]c21`, the IC50 against Neutrophil elastase [1] was > 1000 µM.

As for `COCCn1c(C)c(C)c2c(=O)oc(=O)[nH]c21`, the IC50 entry on Chymotrypsinogen A [3] and at Neutrophil elastase [4] was “Not Active” in each case.
